# Experiments:
# [1] = tested on: New Zealand White male rabbits; assay: In vivo anesthetized rabbit model (hypotensive effect: mean arterial pressure and heart rate)
# Method: Methods: New Zealand White male rabbits (3-4 kg) are anesthetized with sodium pentobarbital (30 mg/kg, i.v.) and a surgical plane of anesthesia is maintained by a continuous infusion of sodium pentobarbital (16 mg/kg/hr) via an ear vein catheter. A tracheotomy is performed through a ventral midline cervical incision and the rabbits are ventilated with 100% oxygen using a positive pressure ventilator. Body temperature is maintained at 38.5° C. using a heating pad connected to a YSI temperature controller model 72 (Yellow Springs Instruments, Yellow Springs, […].). Fluid-filled catheters are placed in the right jugular vein (for intravenous drug administration) and in the right carotid artery for arterial pressure monitoring and for blood gas analysis using a model 248 blood gas analyzer (Bayer Diagnostics, Norwood, Mass.). The ventilator is adjusted as needed to maintain blood pH and pCO2 within normal physiological ranges for rabbits. […] Blood is sampled after dosing or during the infusion of the test compound to determine plasma concentrations of the test compounds.
# Thus, dosing volumes were 0.2 ml/kg (Group A) subcutaneously or 5 ml/h (Groups B, C, and D) as an intravenous (IV) infusion. The term “mgA” means the number of milligrams adjusted for active compound (e.g. corrected for salt etc.).
# Dosing: Four groups (Groups A, B, C, and D) of two rabbits each were dosed as follows.
# M. fascicularis primates = assay: In vivo primate model (hypotensive effect: mean arterial pressure and heart rate); details: monkeys; for mean arterial pressure (MAP) / heart rate (HR): 0.1 mgA/kg SC bolus, mean of 2; for mean arterial pressure (MAP): baseline 101; for heart rate (HR): baseline 161
# [2] = Group D, 1.67 μg/kg/h, 4 hour IV infusion
# [3] = Group A, 1 mgA/kg SC, three monkeys
# [4] = Group C, 0.1 mgA/kg SC, 2 monkeys
smiles,measurement,setting,value
O=C([O-])c1ccc(CCCN2C(=O)CC[C@@H]2CC[C@@H](O)Cc2cccc(C(F)(F)F)c2)s1.[Na+] [Compound 3M sodium salt],heart rate (HR),"[1]; Group C, 16.7 μg/kg/hr IV infusion for 4 hours, 90 min, mean of 2, baseline 291",301 beats/minute
same,mean arterial pressure (MAP),"[1]; Group C, 16.7 μg/kg/hr IV infusion for 4 hours, 120 min, mean of 2, baseline 95",85 mm Hg
same,heart rate (HR),"[1]; Group C, 16.7 μg/kg/hr IV infusion for 4 hours, 120 min, mean of 2, baseline 291",304 beats/minute
same,mean arterial pressure (MAP),"[1]; Group C, 16.7 μg/kg/hr IV infusion for 4 hours, 150 min, mean of 2, baseline 95",85 mm Hg
same,heart rate (HR),"[1]; Group C, 16.7 μg/kg/hr IV infusion for 4 hours, 150 min, mean of 2, baseline 291",301 beats/minute
same,mean arterial pressure (MAP),"[1]; Group C, 16.7 μg/kg/hr IV infusion for 4 hours, 180 min, mean of 2, baseline 95",85 mm Hg
same,heart rate (HR),"[1]; Group C, 16.7 μg/kg/hr IV infusion for 4 hours, 180 min, mean of 2, baseline 291",298 beats/minute
same,mean arterial pressure (MAP),"[1]; Group C, 16.7 μg/kg/hr IV infusion for 4 hours, 210 min, mean of 2, baseline 95",89 mm Hg
same,heart rate (HR),"[1]; Group C, 16.7 μg/kg/hr IV infusion for 4 hours, 210 min, mean of 2, baseline 291",307 beats/minute
same,mean arterial pressure (MAP),"[1]; Group C, 16.7 μg/kg/hr IV infusion for 4 hours, 240 min, mean of 2, baseline 95",89 mm Hg
same,heart rate (HR),"[1]; Group C, 16.7 μg/kg/hr IV infusion for 4 hours, 240 min, mean of 2, baseline 291",306 beats/minute
same,effect on heart rate,[1]; [2],no significant change
same,effect on mean arterial pressure,[1]; [2],no significant change
same,mean arterial pressure (MAP),"[1]; Group D, 1.67 μg/kg/hr IV infusion for 4 hours, 5 min, mean of 2, baseline 89",85 mm Hg
same,heart rate (HR),"[1]; Group D, 1.67 μg/kg/hr IV infusion for 4 hours, 5 min, mean of 2, baseline 260",258 beats/minute
same,mean arterial pressure (MAP),"[1]; Group D, 1.67 μg/kg/hr IV infusion for 4 hours, 10 min, mean of 2, baseline 89",87 mm Hg
same,heart rate (HR),"[1]; Group D, 1.67 μg/kg/hr IV infusion for 4 hours, 10 min, mean of 2, baseline 260",260 beats/minute
same,mean arterial pressure (MAP),"[1]; Group D, 1.67 μg/kg/hr IV infusion for 4 hours, 15 min, mean of 2, baseline 89",85 mm Hg
same,heart rate (HR),"[1]; Group D, 1.67 μg/kg/hr IV infusion for 4 hours, 15 min, mean of 2, baseline 260",262 beats/minute
same,mean arterial pressure (MAP),"[1]; Group D, 1.67 μg/kg/hr IV infusion for 4 hours, 30 min, mean of 2, baseline 89",85 mm Hg
same,heart rate (HR),"[1]; Group D, 1.67 μg/kg/hr IV infusion for 4 hours, 30 min, mean of 2, baseline 260",262 beats/minute
same,mean arterial pressure (MAP),"[1]; Group D, 1.67 μg/kg/hr IV infusion for 4 hours, 60 min, mean of 2, baseline 89",87 mm Hg
same,heart rate (HR),"[1]; Group D, 1.67 μg/kg/hr IV infusion for 4 hours, 60 min, mean of 2, baseline 260",255 beats/minute
same,mean arterial pressure (MAP),"[1]; Group D, 1.67 μg/kg/hr IV infusion for 4 hours, 90 min, mean of 2, baseline 89",87 mm Hg
same,heart rate (HR),"[1]; Group D, 1.67 μg/kg/hr IV infusion for 4 hours, 90 min, mean of 2, baseline 260",253 beats/minute
same,mean arterial pressure (MAP),"[1]; Group D, 1.67 μg/kg/hr IV infusion for 4 hours, 120 min, mean of 2, baseline 89",85 mm Hg
same,heart rate (HR),"[1]; Group D, 1.67 μg/kg/hr IV infusion for 4 hours, 120 min, mean of 2, baseline 260",246 beats/minute
same,mean arterial pressure (MAP),"[1]; Group D, 1.67 μg/kg/hr IV infusion for 4 hours, 150 min, mean of 2, baseline 89",87 mm Hg
same,heart rate (HR),"[1]; Group D, 1.67 μg/kg/hr IV infusion for 4 hours, 150 min, mean of 2, baseline 260",246 beats/minute
same,mean arterial pressure (MAP),"[1]; Group D, 1.67 μg/kg/hr IV infusion for 4 hours, 180 min, mean of 2, baseline 89",87 mm Hg
same,heart rate (HR),"[1]; Group D, 1.67 μg/kg/hr IV infusion for 4 hours, 180 min, mean of 2, baseline 260",246 beats/minute
same,mean arterial pressure (MAP),"[1]; Group D, 1.67 μg/kg/hr IV infusion for 4 hours, 210 min, mean of 2, baseline 89",85 mm Hg
same,heart rate (HR),"[1]; Group D, 1.67 μg/kg/hr IV infusion for 4 hours, 210 min, mean of 2, baseline 260",247 beats/minute
same,mean arterial pressure (MAP),"[1]; Group D, 1.67 μg/kg/hr IV infusion for 4 hours, 240 min, mean of 2, baseline 89",92 mm Hg
same,heart rate (HR),"[1]; Group D, 1.67 μg/kg/hr IV infusion for 4 hours, 240 min, mean of 2, baseline 260",257 beats/minute
same,duration of hypotension,"M. fascicularis primates; Group A, 1 mgA/kg SC",sustained over the 4 hours post-dose
same,onset of hypotension,"M. fascicularis primates; Group A, 1 mgA/kg SC",< 2 min
same,effect on heart rate,M. fascicularis primates; [3],transient increase in heart rate
same,effect on mean arterial pressure,M. fascicularis primates; [3],decrease in mean arterial pressure
same,duration of hypotension,"M. fascicularis primates; Group C, 0.1 mgA/kg SC",sustained over the 4 hours post-dose
same,onset of hypotension,"M. fascicularis primates; Group C, 0.1 mgA/kg SC",< 4 min
same,mean arterial pressure (MAP),"M. fascicularis primates; Group C, 5 min post-dose",91 mm Hg
same,heart rate (HR),"M. fascicularis primates; Group C, 5 min post-dose",203 beats/minute
same,mean arterial pressure (MAP),"M. fascicularis primates; Group C, 10 min post-dose",57 mm Hg
same,heart rate (HR),"M. fascicularis primates; Group C, 10 min post-dose",206 beats/minute
same,mean arterial pressure (MAP),"M. fascicularis primates; Group C, 15 min post-dose",51 mm Hg
same,heart rate (HR),"M. fascicularis primates; Group C, 15 min post-dose",187 beats/minute
same,mean arterial pressure (MAP),"M. fascicularis primates; Group C, 30 min post-dose",53 mm Hg
same,heart rate (HR),"M. fascicularis primates; Group C, 30 min post-dose",190 beats/minute
same,mean arterial pressure (MAP),"M. fascicularis primates; Group C, 60 min post-dose",58 mm Hg
same,heart rate (HR),"M. fascicularis primates; Group C, 60 min post-dose",180 beats/minute
same,mean arterial pressure (MAP),"M. fascicularis primates; Group C, 90 min post-dose",58 mm Hg
same,heart rate (HR),"M. fascicularis primates; Group C, 90 min post-dose",180 beats/minute
same,mean arterial pressure (MAP),"M. fascicularis primates; Group C, 120 min post-dose",62 mm Hg
same,heart rate (HR),"M. fascicularis primates; Group C, 120 min post-dose",183 beats/minute
same,mean arterial pressure (MAP),"M. fascicularis primates; Group C, 150 min post-dose",65 mm Hg
same,heart rate (HR),"M. fascicularis primates; Group C, 150 min post-dose",187 beats/minute
same,mean arterial pressure (MAP),"M. fascicularis primates; Group C, 180 min post-dose",66 mm Hg
same,heart rate (HR),"M. fascicularis primates; Group C, 180 min post-dose",187 beats/minute
same,mean arterial pressure (MAP),"M. fascicularis primates; Group C, 210 min post-dose",71 mm Hg
same,heart rate (HR),"M. fascicularis primates; Group C, 210 min post-dose",191 beats/minute
same,mean arterial pressure (MAP),"M. fascicularis primates; Group C, 240 min post-dose",79 mm Hg
same,heart rate (HR),"M. fascicularis primates; Group C, 240 min post-dose",193 beats/minute
same,effect on heart rate,M. fascicularis primates; [4],transient increase in heart rate that returned toward normal but leveled off and remained elevated over the 4 hours post-dose
same,effect on mean arterial pressure,M. fascicularis primates; [4],decrease in mean arterial pressure
